Where a SMILES comes first, the peptide text is derived from it. [ ]: non-standard residue; d: D form. The star is where a group is joined. Dolaproine = CO[C@@H]([C@@H]1CCCN1)[C@@H](C)C(=O)O; Dil = CC[C@H](C)[C@H](NC)[C@@H](CC(=O)O)OC; X1 = C[C@@H](N*)[C@@H](O)c1ccccc1; NMeV = CN[C@H](C(=O)O)C(C)C
Columns and labels:
CYP3A4 = CYP3A4 (Homo sapiens, UniProt P08684); assay: In vitro metabolism of unconjugated MMAE; format: in vitro ADME; conditions: in vitro data
Text: (§1) Based on a validated physiological-based PK model simulation, strong CYP3A4 inhibitors may increase the exposure (e.g., area under the concentration-time curve) of unconjugated MMAE by ˜50% while acMMAE PK is not affected. Concomitant medications that are strong CYP3A4 inhibitors are considered cautionary as they may potentially lead to adverse reactions, which require close monitoring. […] Concomitant medications that are P-gp inhibitors are considered cautionary as they may potentially lead to adverse reactions, which require close monitoring.

P-glycoprotein (P-gp) = P-glycoprotein (P-gp) (Homo sapiens, UniProt P08183); assay: P-glycoprotein substrate / inhibitor status; format: in vitro ADME
Text: as §1

CYP3A4, sequence (P08684 whole entry): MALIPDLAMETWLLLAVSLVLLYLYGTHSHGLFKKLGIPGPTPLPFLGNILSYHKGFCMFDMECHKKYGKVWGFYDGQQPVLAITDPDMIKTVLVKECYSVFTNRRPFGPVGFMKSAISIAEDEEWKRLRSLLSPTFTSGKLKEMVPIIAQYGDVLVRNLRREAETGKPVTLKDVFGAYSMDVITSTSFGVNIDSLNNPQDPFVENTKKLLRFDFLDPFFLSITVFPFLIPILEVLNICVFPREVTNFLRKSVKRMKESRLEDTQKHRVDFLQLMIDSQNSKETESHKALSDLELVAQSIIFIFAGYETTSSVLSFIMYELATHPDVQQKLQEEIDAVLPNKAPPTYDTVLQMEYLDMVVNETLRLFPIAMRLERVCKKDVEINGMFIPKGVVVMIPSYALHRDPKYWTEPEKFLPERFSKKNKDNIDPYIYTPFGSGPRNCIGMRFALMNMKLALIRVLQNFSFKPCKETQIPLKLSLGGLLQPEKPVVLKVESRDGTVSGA
P-glycoprotein (P-gp), sequence (P08183 whole entry): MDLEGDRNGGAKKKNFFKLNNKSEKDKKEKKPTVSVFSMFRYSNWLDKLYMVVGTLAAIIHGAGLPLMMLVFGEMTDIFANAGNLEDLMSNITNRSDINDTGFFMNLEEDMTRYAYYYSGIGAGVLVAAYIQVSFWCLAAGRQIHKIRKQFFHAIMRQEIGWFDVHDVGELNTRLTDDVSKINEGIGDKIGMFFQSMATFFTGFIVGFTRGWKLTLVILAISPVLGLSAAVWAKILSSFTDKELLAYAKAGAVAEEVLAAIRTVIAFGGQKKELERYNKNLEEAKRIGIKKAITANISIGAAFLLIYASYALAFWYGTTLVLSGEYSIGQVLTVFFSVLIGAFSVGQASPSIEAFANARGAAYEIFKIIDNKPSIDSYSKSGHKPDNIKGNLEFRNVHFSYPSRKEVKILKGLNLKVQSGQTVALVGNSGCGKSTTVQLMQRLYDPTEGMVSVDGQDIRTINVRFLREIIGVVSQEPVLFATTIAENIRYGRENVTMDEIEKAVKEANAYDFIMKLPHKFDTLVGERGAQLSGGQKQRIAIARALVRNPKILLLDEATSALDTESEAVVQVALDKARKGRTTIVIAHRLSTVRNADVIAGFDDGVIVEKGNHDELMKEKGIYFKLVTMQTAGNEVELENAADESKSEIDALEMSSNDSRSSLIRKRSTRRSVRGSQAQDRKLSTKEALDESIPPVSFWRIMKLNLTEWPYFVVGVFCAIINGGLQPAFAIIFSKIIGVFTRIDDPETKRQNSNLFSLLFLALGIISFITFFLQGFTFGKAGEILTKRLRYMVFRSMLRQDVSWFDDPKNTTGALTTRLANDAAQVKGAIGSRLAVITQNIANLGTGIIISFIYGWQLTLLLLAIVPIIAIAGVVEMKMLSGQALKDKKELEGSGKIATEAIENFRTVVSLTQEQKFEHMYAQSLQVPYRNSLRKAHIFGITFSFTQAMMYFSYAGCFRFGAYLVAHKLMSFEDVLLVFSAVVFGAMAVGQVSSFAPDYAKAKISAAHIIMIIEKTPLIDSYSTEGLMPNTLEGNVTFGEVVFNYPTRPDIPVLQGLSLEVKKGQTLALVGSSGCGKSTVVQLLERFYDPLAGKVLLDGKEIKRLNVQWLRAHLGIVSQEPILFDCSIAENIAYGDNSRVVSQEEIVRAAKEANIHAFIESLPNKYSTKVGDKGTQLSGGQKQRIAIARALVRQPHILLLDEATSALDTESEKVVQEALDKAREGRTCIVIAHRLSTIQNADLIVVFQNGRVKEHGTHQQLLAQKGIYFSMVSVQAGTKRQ

For CC[C@H](C)[C@@H]([C@@H](CC(=O)N1CCC[C@H]1[C@H](OC)[C@@H](C)C(=O)N[C@H](C)[C@@H](O)c1ccccc1)OC)N(C)C(=O)[C@@H](NC(=O)[C@@H](NC)C(C)C)C(C)C [MMAE, monomethylauristatin E] (H-[NMeV]V[Dil][Dolaproine]-X1), the “metabolism of unconjugated MMAE by CYP3A4” value (CYP3A4) was “mainly metabolized by CYP3A4” and the P-gp inhibitor (P-glycoprotein (P-gp)) was “not a P-gp inhibitor”.

Source: patent US20240336697A1, “METHODS OF USING ANTI-CD79B IMMUNOCONJUGATES TO TREAT DIFFUSE LARGE B-CELL LYMPHOMA” (Genentech, Inc., priority 2021, published 2024)
